These results are taken from publication PMC10385825, “Synthesis of Benzocycloalkanone-Based Michael Acceptors and Biological Activities as Antimalarial and Antitrypanosomal Agents” (Molecules, 2023).

The IC50 is the point on the concentration scale where inhibition reaches its midpoint.

Assay [1] relates to VERO cells. In words: Cytotoxicity assay in VERO cells (MTT). It counts as cell-based. The settings on record: Chlorocebus sabaeus, 72 h. The procedure:
The in vitro evaluations of compounds toxicity by MTT in VERO cells were performed as described in brief: VERO cells culture in DMEM, BSF 10%, were counted in suspension, seeded at 2 × 10^4 cells/well (100 μL) into a 96-well microplate, and incubated at 37 °C in a humidified 5% CO2 incubator for 24 h. After the incubation period, compounds were added in different concentrations: 50, 100, 150, 200, and 500 μM. The plate was incubated for 72 h in the same conditions. Then, 5 mg mL^−^1 of 3-(4,5-dimethylthiazol-2-yl)-2,5-diphenyl tetrazolium bromide (MTT) was added and incubated in darkness for 4 h. After this time, DMSO was added and the plate was read at 540 nm in a spectrophotometer Synergy HT (Biotek). The test was carried out in triplicate including untreated cells and reference drug controls.

Assay [2] deals with P. berghei ANKA. In words: Four-day suppressive test in P. berghei-infected mice. It is filed as in vivo, Plasmodium berghei (male Balb-C mice). Conditions: for Sd: Survival days (± SEM): 20 mg kg−1 ip once daily, days 1–4 post-infection; for Sd: Survival days (± SEM) / %P: Percentage of parasitemia (± SEM): n = 6; for %P: Percentage of parasitemia (± SEM): fourth day post-infection, 20 mg kg−1 ip once daily for 4 days; for Survival: surviving mice/total, 20 mg kg−1 ip for 4 days. The procedure: Male Balb-C mice with a weight of 18–22 g were fed with a commercial diet ad libitum under standard procedures of animal care following the aforementioned method approved by the Ethics Committee of the Institute of Immunology. The animals were infected with a rodent malaria strain of Plasmodium berghei ANKA. A million infected erythrocytes, in phosphate-buffered saline solution (PBS, 10 mM, pH 7.4, 0.1 mL), were inoculated ip to infect the animal. The parasitemia was inspected by continuous microscopic examination of Giemsa-stained smears.
One million P. berghei, injected in the caudal vein i.v, were used to infect the mice (n = 6). After two hours of inoculation, the compounds that were active in vitro were dissolved in DMSO (0.1 M) and subsequently diluted with Saline-Tween 20 solution (2%), and administered ip for 4 days (20 mg kg^−^1). The parasite load was evaluated on the fourth day by examining Giemsa-stained smears. Chloroquine (20 mg kg^−^1) was used as the positive control and saline solution as the negative control. Non-treated mice were used as a baseline control for survival times. The survival days and percentage of parasitemia were used to express the results.

For assay [3], the system named is β-hematin formation. In words: Inhibition of β-hematin formation in vitro. It counts as biochemical. Conditions: n = 3; read-out: IC50 (βHF) inhibition of β-hematin formation (± SEM). The procedure:
The assay was performed according to previously reported protocols. Hemin chloride (50 μL, 4 mM) in DMSO (5.2 mg mL^−1) was pipetted into 96-well microplates. Different concentrations (0.1–100 mM) of the compounds in DMSO were added in triplicate (50 μL) with a final concentration of 0.025 mM–25 mM/well. Water (50 μL) or DMSO (50 μL) were used as controls. […] Next, the plates were incubated at 37 °C for 48 h and subsequently centrifuged (4000 rpm × 15 min). The supernatant was washed twice with DMSO (200 μL) and resuspended in NaOH (200 μL, 0.2 N). The solubilized products were diluted (1:2) with NaOH (0.1 N), and the plates were read in an ELISA reader at 405 nm (Microplate Reader, BIORAD-550). The results are expressed as % IβHF.

The test system of assay [4] is T. cruzi epimastigotes (Y strain). In words: Trypanocidal activity, proliferation of T. cruzi epimastigotes (MTT). It is filed as cell-based. The settings on record: Trypanosoma cruzi, 96 h, read-out: %ITcP: T. cruzi (epimastigotes) % inhibition proliferation. The procedure: The trypanocidal activity of compounds 7–39 was evaluated on the viability of T. cruzi epimastigotes (Y Strain). Parasites were cultivated in LIT medium supplemented with 10% FBS. The MTT method was used with minor modifications. Next, 2 × 10^6 parasites/mL were seeded in a 96-well plate, adding 50 μM of each derivative dissolved in DMSO (final concentration remained below 1%). The plate was incubated for 96 h at 29 °C. Then, 5 mg mL^−^1 of 3-(4,5-dimethylthiazol-2-yl)-2,5-diphenyl tetrazolium bromide (MTT) was added and incubated in darkness for 4 h. After this time, acidic isopropanol (4N) was added and the plate was read at 540 nm in a spectrophotometer Synergy HT (Biotek). Benznidazole (50 µM) was used as a reference drug.

“And” between values parts separate entries of the source, which are not always exact repeats. Identical values can stand only once.

For the compound `COc1ccc(OC)c2c1C/C(=C\c1ccc(SCc3ccccc3)cc1)C2=O` [compound 12, (E)-2-[4-(Benzylthio)benzylidene]-2,3-dihydro-4,7-dimethoxyinden-1-one], in assay [1], the IC50 is greater than 150 µM. In assay [2], the “Sd: Survival days (± SEM)” value is 12.3 ± 2.40 days and 12.3 ± 2.4 days; the “%P: Percentage of parasitemia (± SEM)” value was determined as 12.5 ± 3.1%; the Survival is reported as 0/6. Besides, the IC50 in assay [3] stood at 0.66 ± 0.1 µM. In assay [4], the inhibition at 50 µM was found to be 18.5 ± 2.9%.
With `COc1cc2c(cc1OC)C(=O)/C(=C/c1ccc(SCc3ccccc3)cc1)C2` [compound 11, (E)-2-[4-(Benzylthio)benzylidene]-2,3-dihydro-5,6-dimethoxyinden-1-one], in assay [1], the concentration for half-maximal inhibition (IC50) was greater than 150 µM. In assay [2], the “Sd: Survival days (± SEM)” value is 14.2 ± 2.16 days and 14.2 ± 2.2 days; the “%P: Percentage of parasitemia (± SEM)” value is recorded as 7.6 ± 2.3%; the Survival is 0/6. The IC50 in assay [3] is 0.82 ± 0.1 µM. Also, the inhibition at 50 µM in assay [4] came to 40 ± 8.2%.
For the compound `COc1ccc2c(c1OC)C/C(=C\c1ccc(SCc3ccccc3)cc1)C2=O` [compound 10, (E)-2-[4-(Benzylthio)benzylidene]-2,3-dihydro-4,5-dimethoxyinden-1-one], in assay [1], the 50% inhibitory concentration (IC50) is greater than 150 µM. Also, in assay [2], the “Sd: Survival days (± SEM)” value is 18.8 ± 4.91 days and 18.8 ± 4.9 days; the “%P: Percentage of parasitemia (± SEM)” value is reported as 9.1 ± 2.44%; the Survival was 0/6. Further, the IC50 in assay [3] stood at 33.1 ± 2.5 µM. Also, in assay [4], the inhibition at 50 µM was 33 ± 5.6%.
